Target: DNA polymerase theta (Homo sapiens, UniProt O75417)
Test: POLQ Enzyme Activity Inhibition Assay
Description: The compounds to be tested were diluted to different concentrations in dimethyl sulfoxide (DMSO) using the Echo 650 pipetting system, and transferred to a 384-well plate, 20 μL/well of 100 nM POLQ was added, and the mixture was incubated at room temperature for 15 minutes. […] 20 μL/well of reaction mixture solution was added to start the enzyme reaction. […] The concentration range was from 10 μM to 0.0005 μM, and the final concentration of DMSO in the system was 0.2% v/v. The 384-well plate was reacted at room temperature for 20 minutes, and then the OD value at 340 nm was read with an Envision microplate reader.

Chain of DNA polymerase theta (O75417 whole entry): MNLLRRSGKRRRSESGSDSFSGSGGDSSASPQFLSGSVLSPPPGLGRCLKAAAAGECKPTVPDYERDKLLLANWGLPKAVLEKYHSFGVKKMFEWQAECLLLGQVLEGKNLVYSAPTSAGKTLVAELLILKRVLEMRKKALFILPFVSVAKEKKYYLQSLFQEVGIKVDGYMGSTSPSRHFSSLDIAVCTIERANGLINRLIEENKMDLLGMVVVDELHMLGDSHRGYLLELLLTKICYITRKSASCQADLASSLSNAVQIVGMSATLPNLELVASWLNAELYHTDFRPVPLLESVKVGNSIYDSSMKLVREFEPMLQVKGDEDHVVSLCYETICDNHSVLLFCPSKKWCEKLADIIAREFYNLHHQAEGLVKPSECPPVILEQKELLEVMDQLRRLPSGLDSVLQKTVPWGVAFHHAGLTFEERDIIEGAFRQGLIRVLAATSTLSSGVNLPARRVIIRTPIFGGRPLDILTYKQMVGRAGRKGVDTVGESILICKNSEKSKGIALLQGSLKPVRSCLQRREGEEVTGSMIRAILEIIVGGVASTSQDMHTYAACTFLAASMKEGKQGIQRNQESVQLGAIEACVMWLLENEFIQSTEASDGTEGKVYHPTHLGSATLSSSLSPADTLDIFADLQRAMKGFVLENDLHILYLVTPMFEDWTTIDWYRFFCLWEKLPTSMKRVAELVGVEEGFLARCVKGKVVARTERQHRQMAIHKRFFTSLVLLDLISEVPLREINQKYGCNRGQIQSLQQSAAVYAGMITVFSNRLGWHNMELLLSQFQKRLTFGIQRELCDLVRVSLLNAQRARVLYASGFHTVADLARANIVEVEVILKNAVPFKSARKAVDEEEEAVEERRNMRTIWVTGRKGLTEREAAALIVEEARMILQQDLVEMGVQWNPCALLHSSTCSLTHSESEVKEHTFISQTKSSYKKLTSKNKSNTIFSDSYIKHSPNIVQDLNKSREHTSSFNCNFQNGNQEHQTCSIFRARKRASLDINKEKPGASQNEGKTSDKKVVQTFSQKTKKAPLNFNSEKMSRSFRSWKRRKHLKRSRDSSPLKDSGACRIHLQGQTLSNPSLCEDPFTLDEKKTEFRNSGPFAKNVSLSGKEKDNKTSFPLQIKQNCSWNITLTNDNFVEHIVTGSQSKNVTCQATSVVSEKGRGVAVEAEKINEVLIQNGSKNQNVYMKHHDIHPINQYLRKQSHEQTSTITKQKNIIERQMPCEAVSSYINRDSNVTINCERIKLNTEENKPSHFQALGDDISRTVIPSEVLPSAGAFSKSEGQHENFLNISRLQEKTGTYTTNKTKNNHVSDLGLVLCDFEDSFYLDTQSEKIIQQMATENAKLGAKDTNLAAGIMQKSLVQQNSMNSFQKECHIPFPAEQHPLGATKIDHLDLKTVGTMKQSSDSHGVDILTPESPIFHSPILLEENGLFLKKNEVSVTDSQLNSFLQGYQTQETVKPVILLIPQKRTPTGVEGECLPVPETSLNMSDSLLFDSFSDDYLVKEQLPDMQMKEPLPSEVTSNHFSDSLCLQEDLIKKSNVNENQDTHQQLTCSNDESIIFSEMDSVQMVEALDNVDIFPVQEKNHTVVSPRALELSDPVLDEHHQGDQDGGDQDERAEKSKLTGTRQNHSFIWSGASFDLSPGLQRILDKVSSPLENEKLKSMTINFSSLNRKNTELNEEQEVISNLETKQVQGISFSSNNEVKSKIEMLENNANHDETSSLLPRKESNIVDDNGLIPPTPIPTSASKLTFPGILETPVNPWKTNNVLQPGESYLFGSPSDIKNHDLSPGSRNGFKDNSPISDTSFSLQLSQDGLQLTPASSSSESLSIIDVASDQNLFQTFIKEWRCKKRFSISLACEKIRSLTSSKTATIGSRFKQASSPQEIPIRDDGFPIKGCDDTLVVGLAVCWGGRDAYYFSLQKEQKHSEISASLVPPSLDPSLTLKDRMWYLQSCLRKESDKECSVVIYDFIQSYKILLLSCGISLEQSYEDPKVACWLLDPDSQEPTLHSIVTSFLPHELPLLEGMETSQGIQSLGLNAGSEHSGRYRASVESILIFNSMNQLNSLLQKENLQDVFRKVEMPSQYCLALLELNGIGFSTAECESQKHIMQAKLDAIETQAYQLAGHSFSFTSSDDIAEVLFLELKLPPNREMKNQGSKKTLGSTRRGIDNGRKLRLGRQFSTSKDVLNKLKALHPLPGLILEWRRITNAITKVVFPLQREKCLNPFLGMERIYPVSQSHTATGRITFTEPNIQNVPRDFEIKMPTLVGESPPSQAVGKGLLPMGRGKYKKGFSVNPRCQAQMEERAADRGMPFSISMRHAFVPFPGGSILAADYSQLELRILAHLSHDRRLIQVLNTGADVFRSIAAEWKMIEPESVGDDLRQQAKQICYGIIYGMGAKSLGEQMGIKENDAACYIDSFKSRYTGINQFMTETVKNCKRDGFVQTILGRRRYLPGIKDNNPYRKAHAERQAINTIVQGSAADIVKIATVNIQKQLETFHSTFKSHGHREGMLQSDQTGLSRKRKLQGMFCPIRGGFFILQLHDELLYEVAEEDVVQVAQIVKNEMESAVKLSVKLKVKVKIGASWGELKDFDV

IC50: < 100 nM
Compound: COc1ccccc1-c1cc2c(cc1C(=O)Nc1nc3ncc(-c4ccc(C#N)cc4)nc3s1)OCO2 [US20250122221, Compound 56]

— BindingDB's records for patent US20250122221 (Nanjing Zaiming Pharmaceutical, 2025)
